{
  "source": "paper PMC8303674",
  "about": "“Discovery of a Novel Triazolopyridine Derivative as a Tankyrase Inhibitor” (International Journal of Molecular Sciences, 2021)",
  "key": {"TNKS1 (tankyrase)": {"target": "T1, TNKS1 (tankyrase) (Homo sapiens, UniProt O95271)", "T1 construct": "gene TNKS", "T1 sequence (O95271 whole entry)": "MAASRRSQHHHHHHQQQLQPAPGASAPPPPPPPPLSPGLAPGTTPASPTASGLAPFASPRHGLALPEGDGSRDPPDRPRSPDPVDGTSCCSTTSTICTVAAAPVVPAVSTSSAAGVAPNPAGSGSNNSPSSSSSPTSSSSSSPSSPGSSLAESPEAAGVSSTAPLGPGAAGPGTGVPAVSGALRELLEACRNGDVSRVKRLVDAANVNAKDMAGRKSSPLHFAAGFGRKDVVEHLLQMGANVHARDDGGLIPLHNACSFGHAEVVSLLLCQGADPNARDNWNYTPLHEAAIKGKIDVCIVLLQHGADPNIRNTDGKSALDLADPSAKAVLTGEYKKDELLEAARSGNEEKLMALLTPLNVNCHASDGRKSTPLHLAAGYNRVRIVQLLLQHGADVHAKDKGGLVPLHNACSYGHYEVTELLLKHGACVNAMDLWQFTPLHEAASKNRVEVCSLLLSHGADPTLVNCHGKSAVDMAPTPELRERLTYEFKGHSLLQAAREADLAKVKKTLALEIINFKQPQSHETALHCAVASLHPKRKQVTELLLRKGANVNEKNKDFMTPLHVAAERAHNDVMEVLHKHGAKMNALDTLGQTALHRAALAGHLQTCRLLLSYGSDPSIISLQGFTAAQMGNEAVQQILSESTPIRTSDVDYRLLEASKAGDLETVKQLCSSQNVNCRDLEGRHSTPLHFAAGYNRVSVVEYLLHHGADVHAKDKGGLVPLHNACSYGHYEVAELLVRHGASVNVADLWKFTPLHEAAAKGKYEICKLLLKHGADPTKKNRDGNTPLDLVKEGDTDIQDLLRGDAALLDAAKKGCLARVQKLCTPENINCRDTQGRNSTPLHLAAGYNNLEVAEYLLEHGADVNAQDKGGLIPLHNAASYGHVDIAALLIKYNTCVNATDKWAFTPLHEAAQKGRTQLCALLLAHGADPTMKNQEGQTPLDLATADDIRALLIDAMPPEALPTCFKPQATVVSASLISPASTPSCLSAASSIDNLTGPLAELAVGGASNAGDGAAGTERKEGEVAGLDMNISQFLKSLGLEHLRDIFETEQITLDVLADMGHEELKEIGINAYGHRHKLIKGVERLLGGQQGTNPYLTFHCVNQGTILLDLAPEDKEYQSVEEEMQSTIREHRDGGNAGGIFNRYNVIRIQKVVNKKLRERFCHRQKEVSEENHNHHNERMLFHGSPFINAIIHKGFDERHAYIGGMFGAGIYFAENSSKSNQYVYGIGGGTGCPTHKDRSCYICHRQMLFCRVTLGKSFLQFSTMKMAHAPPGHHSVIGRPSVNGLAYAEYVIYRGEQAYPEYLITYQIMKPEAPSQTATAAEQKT", "assay": "cell-free colorimetric TNKS1 activity assay (BPS Bioscience)", "assay_type": "biochemical", "text": "cell-free colorimetric TNKS1 activity assay (BPS Bioscience) on TNKS1 (tankyrase) | IC50 (μM) of TI-12403 against TNKS1 and TNKS2."}, "TNKS2 (tankyrase 2)": {"target": "T2, TNKS2 (tankyrase 2) (Homo sapiens, UniProt Q9H2K2)", "T2 sequence (Q9H2K2 1-1166)": "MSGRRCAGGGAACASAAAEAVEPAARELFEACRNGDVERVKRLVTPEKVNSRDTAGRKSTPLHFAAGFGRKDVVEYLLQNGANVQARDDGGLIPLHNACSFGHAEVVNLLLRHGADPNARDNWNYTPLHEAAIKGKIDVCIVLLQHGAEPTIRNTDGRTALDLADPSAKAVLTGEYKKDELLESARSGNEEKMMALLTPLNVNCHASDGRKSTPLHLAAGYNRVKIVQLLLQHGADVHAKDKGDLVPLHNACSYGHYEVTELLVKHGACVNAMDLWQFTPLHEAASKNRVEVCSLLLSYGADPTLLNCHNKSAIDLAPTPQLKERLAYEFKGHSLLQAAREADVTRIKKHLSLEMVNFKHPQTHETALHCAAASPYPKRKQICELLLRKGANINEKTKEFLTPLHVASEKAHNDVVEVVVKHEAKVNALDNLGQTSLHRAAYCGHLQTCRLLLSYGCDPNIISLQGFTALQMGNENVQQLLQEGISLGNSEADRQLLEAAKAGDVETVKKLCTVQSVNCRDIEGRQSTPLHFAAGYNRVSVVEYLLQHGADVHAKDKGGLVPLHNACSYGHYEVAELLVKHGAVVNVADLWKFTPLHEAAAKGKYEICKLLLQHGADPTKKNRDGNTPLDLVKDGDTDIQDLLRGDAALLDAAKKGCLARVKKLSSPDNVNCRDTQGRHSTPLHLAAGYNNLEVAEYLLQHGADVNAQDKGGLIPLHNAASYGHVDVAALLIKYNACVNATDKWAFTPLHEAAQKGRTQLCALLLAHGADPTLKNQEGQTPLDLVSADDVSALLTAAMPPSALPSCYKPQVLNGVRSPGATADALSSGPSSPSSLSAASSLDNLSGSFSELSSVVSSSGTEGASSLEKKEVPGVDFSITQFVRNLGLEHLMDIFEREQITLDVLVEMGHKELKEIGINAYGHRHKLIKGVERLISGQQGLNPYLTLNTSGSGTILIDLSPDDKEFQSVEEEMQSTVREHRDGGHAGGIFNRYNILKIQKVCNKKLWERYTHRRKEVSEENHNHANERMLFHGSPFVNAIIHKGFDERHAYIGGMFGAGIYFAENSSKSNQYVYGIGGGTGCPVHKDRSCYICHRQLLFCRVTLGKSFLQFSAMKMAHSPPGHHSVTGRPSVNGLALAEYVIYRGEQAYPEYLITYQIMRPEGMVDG", "assay": "cell-free colorimetric TNKS2 activity assay (BPS Bioscience)", "assay_type": "biochemical", "text": "cell-free colorimetric TNKS2 activity assay (BPS Bioscience) on TNKS2 (tankyrase 2) | IC50 (μM) of TI-12403 against TNKS1 and TNKS2."}},
  "note": "pIC50: −log10 of the molar value.",
  "data": [
    {"smiles": "N#Cc1ccccc1N1CCC(C(=O)Nc2nnc3ccccn23)CC1", "note": "[TI-12403, N-([1,2,4]triazolo[4,3-a]pyridin-3-yl)-1-(2-cyanophenyl)piperidine-4-carboxamide]", "values": [
      {"measurement": "pIC50", "setting": "TNKS1 (tankyrase)", "value": 7.54},
      {"measurement": "pIC50", "setting": "TNKS2 (tankyrase 2)", "value": 7.22}
    ]}
  ]
}
